In patent US20110098325A1, “PYRIDINE BENZAMIDES AND PYRAZINE BENZAMIDES USED AS PKD INHIBITORS” (CANCER RESEARCH TECHNOLOGY LIMITED, priority 2006, published 2011):

Target: T1, Murine PKD1 kinase domain (Mus musculus, UniProt Q62101)
T1 construct: hexahistidine (pFastBac HTb leader) (N); made in house; host or cells: Sf9 insect cells, baculovirus (Bac-to-Bac HT, pFastBac HTb)
T1 sequence (Q62101 with tags, fused parts or gaps R683W): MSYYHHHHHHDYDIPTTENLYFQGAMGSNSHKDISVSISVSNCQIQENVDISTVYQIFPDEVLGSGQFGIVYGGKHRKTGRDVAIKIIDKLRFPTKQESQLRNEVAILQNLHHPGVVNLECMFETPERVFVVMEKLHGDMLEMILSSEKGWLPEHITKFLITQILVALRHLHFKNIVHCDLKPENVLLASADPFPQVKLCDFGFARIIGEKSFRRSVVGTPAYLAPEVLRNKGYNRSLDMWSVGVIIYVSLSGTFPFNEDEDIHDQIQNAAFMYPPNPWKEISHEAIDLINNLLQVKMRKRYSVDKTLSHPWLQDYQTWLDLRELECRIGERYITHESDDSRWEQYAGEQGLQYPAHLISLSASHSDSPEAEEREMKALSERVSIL
Assay: PKD1 (Murine Kinase Domain) Enzyme Activity Assay (IMAP fluorescence polarisation)
Format: biochemical
Conditions: 10 μM ATP, 60 minutes, room temperature

IC50, < 1 µM:
COc1cncc(-c2cc(-c3cccc(C(=O)NCCN(C)C)c3)cnc2N)c1 [Y-089, 3-(2-Amino-5′-methoxy-[3,3′]bipyridinyl-5-yl)-N-(2-dimethylamino-ethyl)-benzamide]
CN(C)CCNC(=O)c1cccc(-c2cnc(N)c(-c3cnc4ccccc4c3)c2)c1 [Y-090, 3-(6-Amino-5-quinolin-3-yl-pyridin-3-yl)-N-(2-dimethylamino-ethyl)-benzamide]
CN(C)CCNC(=O)c1cccc(-c2cnc(N)c(-c3ccc4nccnc4c3)c2)c1 [Y-091, 3-(6-Amino-5-quinoxalin-6-yl-pyridin-3-yl)-N-(2-dimethylamino-ethyl)-benzamide]
COc1cccc(-c2cc(-c3cccc(C(=O)NC(C)CN(C)C)c3)cnc2N)c1 (stereo not shown) [Y-092, 3-[6-Amino-5-(3-methoxy-phenyl)-pyridin-3-yl]-N-(2-dimethylamino-1-methyl-ethyl)-benzamide]
COc1cc(-c2cc(-c3cccc(C(=O)NCCN(C)C)c3)cnc2N)ncn1 [Y-093, 3-[6-Amino-5-(6-methoxy-pyrimidin-4-yl)-pyridin-3-yl]-N-(2-dimethylamino-ethyl)-benzamide]
CN(C)CCNC(=O)c1cccc(-c2cnc(N)c(-c3ccc4[nH]ncc4c3)c2)c1 [Y-094, 3-[6-Amino-5-(1H-indazol-5-yl)-pyridin-3-yl]-N-(2-dimethylamino-ethyl)-benzamide]
CCN(CC)CCNC(=O)c1cccc(-c2cnc(N)c(-c3cccc(OC)c3)c2)c1 [Y-096, 3-[6-Amino-5-(3-methoxy-phenyl)-pyridin-3-yl]-N-(2-diethylamino-ethyl)-benzamide]
